{"source": "ChEMBL document CHEMBL5465560", "about": "“Selectivity Literature for EUbOPEN Chemogenomic Library” (2024)", "key": {"[1]": {"molecular_target": "T1, PAN2-PAN3 deadenylation complex subunit PAN3 (Homo sapiens) (UniProt Q58A45)", "T1 sequence (whole entry)": "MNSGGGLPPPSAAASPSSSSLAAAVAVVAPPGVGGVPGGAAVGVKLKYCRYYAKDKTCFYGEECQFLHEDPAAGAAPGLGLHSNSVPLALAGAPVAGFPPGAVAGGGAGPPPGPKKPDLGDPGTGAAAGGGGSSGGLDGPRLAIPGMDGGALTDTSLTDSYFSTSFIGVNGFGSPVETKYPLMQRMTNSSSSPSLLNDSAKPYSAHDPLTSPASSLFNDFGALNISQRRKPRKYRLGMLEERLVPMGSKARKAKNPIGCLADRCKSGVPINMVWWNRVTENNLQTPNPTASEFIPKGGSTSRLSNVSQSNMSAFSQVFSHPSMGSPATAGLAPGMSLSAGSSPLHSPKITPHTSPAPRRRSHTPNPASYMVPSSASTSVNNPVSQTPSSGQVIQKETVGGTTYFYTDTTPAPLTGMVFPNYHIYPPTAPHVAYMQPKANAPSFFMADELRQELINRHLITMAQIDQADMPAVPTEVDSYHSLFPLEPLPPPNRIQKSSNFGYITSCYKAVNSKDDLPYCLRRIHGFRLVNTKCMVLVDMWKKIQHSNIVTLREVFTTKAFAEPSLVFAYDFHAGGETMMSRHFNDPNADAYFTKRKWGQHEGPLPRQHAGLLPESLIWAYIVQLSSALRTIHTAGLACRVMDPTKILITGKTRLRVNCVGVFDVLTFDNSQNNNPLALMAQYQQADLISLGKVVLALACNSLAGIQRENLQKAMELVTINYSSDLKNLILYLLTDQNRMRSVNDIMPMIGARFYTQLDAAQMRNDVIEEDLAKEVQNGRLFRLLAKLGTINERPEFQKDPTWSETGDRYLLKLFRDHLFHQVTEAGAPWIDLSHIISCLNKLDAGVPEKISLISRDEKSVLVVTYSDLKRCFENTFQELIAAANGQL", "assay": "Selectivity interaction (Kinase panel (KiNativ target engagement assay in Jurkat cells)) EUB0001635a PAN3", "format": "cell-based", "settings": "Selectivity number of off-targets 0.0, Selectivity number of targets 233.0, Source Knowledge https://www.sciencedirect.com/science/article/pii/S2451945619300674?via%3Dihub, at 1 µM"}, "Ephrin type-A receptor 4": {"molecular_target": "Ephrin type-A receptor 4 (Homo sapiens, UniProt P54764)", "sequence (P54764 whole entry)": "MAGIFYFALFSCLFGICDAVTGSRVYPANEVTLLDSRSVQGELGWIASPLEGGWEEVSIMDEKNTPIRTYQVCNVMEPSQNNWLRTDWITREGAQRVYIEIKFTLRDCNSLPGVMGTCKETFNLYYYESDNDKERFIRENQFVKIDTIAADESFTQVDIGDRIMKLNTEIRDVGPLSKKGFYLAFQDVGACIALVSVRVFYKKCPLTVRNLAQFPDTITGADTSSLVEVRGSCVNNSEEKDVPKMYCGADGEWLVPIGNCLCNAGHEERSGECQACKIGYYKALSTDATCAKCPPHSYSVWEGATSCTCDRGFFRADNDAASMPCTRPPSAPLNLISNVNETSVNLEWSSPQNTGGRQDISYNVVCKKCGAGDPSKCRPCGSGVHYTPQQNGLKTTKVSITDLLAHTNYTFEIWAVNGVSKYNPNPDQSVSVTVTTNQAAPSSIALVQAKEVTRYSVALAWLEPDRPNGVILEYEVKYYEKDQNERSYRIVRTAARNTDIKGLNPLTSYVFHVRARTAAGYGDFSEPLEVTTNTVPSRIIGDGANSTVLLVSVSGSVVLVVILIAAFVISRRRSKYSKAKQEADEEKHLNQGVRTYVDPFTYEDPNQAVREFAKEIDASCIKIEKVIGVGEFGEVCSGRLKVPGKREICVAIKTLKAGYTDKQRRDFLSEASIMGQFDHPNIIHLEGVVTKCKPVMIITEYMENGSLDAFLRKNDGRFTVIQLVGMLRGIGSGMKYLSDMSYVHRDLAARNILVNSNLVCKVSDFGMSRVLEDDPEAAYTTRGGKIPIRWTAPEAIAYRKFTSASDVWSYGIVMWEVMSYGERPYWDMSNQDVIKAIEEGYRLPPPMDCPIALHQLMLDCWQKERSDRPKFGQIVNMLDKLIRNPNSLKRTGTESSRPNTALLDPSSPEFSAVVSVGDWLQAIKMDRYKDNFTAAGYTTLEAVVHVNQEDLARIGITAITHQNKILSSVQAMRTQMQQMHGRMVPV", "settings": "at 10 µM"}, "[2]": {"molecular_target": "TGF-beta receptor type-2 (Homo sapiens) (UniProt P37173)", "sequence (P37173 whole entry)": "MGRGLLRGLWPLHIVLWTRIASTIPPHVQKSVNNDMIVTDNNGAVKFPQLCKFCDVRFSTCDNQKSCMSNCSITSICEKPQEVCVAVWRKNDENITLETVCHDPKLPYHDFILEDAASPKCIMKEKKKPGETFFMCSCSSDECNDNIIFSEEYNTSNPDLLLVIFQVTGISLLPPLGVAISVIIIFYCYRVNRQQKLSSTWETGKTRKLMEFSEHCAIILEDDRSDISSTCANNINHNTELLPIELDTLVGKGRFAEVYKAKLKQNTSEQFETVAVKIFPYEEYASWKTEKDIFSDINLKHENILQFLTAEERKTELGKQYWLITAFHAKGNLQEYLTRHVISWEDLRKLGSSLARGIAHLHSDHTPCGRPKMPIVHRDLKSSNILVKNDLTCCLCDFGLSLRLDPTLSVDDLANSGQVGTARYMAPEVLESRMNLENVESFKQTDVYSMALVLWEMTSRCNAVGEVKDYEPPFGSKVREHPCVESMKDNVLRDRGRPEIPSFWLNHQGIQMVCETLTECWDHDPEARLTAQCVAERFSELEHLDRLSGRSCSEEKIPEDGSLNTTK", "assay": "Selectivity interaction (KinomeScan (DiscoverX)) EUB0001619a TGFBR2", "settings": "at 1 µM"}, "[3]": {"molecular_target": "T2, Serine/threonine-protein kinase Nek1 (Homo sapiens) (UniProt Q96PY6)", "T2 sequence (whole entry)": "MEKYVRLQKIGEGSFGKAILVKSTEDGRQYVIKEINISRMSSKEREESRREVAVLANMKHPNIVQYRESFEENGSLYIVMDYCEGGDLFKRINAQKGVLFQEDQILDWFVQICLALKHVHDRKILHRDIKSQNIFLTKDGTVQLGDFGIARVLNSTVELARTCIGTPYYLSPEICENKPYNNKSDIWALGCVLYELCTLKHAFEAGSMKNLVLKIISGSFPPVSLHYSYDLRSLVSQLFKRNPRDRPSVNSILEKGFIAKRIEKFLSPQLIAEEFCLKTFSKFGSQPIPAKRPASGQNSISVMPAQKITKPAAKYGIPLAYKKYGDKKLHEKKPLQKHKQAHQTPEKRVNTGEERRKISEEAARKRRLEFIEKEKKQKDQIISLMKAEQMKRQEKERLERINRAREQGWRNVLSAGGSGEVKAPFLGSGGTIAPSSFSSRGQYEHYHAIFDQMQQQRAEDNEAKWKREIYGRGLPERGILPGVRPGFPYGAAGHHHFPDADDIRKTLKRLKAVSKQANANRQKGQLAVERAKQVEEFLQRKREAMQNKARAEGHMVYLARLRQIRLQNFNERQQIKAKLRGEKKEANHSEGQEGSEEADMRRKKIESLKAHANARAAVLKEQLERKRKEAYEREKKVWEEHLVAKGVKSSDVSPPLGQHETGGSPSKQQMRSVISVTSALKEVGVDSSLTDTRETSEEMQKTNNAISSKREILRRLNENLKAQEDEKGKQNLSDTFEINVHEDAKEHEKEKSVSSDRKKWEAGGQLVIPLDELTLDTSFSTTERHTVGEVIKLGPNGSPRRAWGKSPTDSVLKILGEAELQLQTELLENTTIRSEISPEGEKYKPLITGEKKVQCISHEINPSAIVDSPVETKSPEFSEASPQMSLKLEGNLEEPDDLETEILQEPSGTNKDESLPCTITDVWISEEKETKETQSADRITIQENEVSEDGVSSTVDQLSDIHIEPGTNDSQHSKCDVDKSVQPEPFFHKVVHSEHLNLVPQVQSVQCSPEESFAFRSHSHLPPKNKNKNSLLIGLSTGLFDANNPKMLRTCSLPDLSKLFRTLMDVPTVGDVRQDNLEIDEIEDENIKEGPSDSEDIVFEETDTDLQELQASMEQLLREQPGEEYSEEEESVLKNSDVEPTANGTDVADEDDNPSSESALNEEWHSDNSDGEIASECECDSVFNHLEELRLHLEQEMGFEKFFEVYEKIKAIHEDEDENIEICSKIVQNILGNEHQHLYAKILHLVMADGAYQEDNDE", "assay": "Selectivity interaction (ActivX KiNativ screen (ex vivo kinase selectivity in human PBMCs)) EUB0001619a NEK1", "format": "cell-based", "settings": "PBMC, at 1 µM"}, "[4]": {"molecular_target": "Phosphatidylinositol 4,5-bisphosphate 3-kinase catalytic subunit alpha isoform (Homo sapiens) (UniProt P42336)", "sequence (P42336 whole entry, canonical isoform)": "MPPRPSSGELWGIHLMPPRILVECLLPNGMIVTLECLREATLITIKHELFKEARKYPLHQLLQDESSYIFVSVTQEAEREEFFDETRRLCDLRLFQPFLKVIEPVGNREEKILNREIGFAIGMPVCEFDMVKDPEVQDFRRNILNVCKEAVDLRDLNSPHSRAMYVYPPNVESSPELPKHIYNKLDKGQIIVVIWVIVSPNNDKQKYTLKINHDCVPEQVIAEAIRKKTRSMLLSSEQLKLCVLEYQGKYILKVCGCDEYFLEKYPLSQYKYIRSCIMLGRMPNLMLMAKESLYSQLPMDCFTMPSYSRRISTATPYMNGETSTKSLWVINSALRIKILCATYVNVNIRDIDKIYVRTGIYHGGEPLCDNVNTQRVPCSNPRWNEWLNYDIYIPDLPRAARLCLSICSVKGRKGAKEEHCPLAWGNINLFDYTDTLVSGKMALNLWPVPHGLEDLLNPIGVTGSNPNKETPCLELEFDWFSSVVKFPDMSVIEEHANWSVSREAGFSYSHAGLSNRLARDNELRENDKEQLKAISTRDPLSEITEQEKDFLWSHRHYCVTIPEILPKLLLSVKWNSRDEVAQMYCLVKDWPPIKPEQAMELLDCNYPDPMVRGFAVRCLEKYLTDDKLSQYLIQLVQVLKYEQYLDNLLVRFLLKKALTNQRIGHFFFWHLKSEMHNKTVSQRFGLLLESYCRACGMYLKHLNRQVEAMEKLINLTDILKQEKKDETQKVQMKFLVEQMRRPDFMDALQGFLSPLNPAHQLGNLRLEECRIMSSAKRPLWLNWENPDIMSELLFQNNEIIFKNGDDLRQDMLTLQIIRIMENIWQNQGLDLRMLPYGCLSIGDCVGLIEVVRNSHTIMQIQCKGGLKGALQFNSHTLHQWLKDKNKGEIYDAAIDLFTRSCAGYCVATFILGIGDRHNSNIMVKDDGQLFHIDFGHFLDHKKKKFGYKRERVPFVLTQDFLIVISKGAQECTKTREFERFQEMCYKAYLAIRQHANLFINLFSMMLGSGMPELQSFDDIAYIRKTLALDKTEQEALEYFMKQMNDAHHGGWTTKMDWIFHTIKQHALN", "settings": "at 10 µM"}, "[5]": {"molecular_target": "Ribosomal protein S6 kinase alpha-1 (Homo sapiens, UniProt Q15418)", "sequence (Q15418 whole entry)": "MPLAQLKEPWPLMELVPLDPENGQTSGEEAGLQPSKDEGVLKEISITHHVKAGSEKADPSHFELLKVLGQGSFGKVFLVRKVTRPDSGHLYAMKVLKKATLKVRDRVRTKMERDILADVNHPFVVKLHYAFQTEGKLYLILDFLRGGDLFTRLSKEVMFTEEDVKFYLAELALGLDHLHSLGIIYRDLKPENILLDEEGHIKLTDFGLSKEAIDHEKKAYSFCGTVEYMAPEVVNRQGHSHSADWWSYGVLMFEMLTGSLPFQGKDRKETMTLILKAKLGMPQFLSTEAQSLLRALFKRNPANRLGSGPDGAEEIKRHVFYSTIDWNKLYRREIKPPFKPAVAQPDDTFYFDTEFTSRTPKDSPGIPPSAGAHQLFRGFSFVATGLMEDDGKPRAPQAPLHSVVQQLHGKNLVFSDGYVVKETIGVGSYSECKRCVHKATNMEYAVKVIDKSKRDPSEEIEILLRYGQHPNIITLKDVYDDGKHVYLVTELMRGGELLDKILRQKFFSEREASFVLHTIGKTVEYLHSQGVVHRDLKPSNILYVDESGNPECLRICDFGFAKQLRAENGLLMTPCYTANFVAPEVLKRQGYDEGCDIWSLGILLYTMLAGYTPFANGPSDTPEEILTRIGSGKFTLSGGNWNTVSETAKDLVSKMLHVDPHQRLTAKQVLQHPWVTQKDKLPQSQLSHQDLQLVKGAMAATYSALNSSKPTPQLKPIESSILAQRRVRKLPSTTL", "assay": "Selectivity interaction (ActivX KiNativ screen (kinase selectivity in THP-1 cell lysates)) EUB0000639a RPS6KA1", "format": "subcellular", "settings": "lysate, at 0.01 µM"}, "[6]": {"molecular_target": "Tyrosine-protein kinase SYK (Homo sapiens, UniProt P43405)", "assay": "Selectivity interaction (ActivX KiNativ screen (kinase selectivity in THP-1 cell lysates)) EUB0000639a SYK", "format": "subcellular", "settings": "lysate, at 5 µM"}}}
{"smiles": "C=CC(=O)Nc1ccc(C(=O)Nc2[nH]nc3c2CN(C(=O)N[C@H](CN(C)C)c2ccccc2)C3(C)C)cc1", "values": [{"measurement": "% of engagement", "setting": "[1]", "result": -3.3, "unit": "%"}]}
{"smiles": "Cc1cc([C@@H](C)Nc2ccccc2C(=O)O)c2nc(N3CCOCC3)cc(=O)n2c1", "note": "[AZD-6482]", "values": [{"measurement": "% of control", "setting": "Ephrin type-A receptor 4", "result": 93, "unit": "%"}]}
{"smiles": "N#Cc1cccc(-c2c[nH]c3ncnc(N4CCOCC4)c23)c1", "values": [{"measurement": "% of control", "setting": "[2]", "result": 100, "unit": "%"}, {"measurement": "% of inhibition", "setting": "[3]", "result": -2, "unit": "%"}]}
{"smiles": "CNC(=O)Nc1ccc(-c2nc(N3CC4CCC(C3)O4)c3cnn(C4CCC5(CC4)OCCO5)c3n2)cc1", "values": [{"measurement": "% of control", "setting": "[4]", "result": 16, "unit": "%"}]}
{"smiles": "CC[C@@H]1[C@H](F)C(=O)N[C@@H]1COc1nccc2cc(C(N)=O)c(OC)cc12", "note": "[ZIMLOVISERTIB]", "values": [{"measurement": "% of inhibition", "setting": "[5]", "result": -8.3, "unit": "%"}, {"measurement": "% of inhibition", "setting": "[6]", "result": -8.7, "unit": "%"}]}
